For test [1], the target named is T1, Furin (108-574-Tev-Flag-His) enzyme (Homo sapiens, UniProt P09958).
T1 construct: Furin (108-574-Tev-Flag-His) enzyme was expressed and purified from CHO cells; TEV cleavage site (C); FLAG (C); His (C); made in house; host or cells: CHO cells
Kind of test: Furin enzyme assay. Type of test: biochemical. The gist of the method:
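Compounds ran as 11-point threefold dilutions (0.00017–10 μM final) against 40 pM furin, purified from CHO cells, for 2 h at room temperature. Buffer: 100 mM HEPES pH7.5 with 1 mM CaCl2 and 0.005% Triton X-100. Envision readout. Four-parameter curve gives pXC50.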

The target in test [2] is T2, furin (endogenous protease) in U20S cells (Homo sapiens, UniProt P09958).
T2 construct: the endogenous protease cleaves GFP; endogenous in cells; host or cells: U2OS cells transduced with a BacMam reporter
Kind of test: Furin cell-based assay (image-based, Golgi-targeted GFP with BMP10 furin/PCSK cleavage site).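 Also: Read-out is mean GFP fluorescence of Golgi puncta per cell by high-content imaging, retained when furin inhibited, over an eleven-point 0.00017–10 µM series, four-parameter fit.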 The conditions noted are these: 24-hour incubation, read-out: furin golgi cell pXC50 (converted).

T1 sequence (P09958 108-574): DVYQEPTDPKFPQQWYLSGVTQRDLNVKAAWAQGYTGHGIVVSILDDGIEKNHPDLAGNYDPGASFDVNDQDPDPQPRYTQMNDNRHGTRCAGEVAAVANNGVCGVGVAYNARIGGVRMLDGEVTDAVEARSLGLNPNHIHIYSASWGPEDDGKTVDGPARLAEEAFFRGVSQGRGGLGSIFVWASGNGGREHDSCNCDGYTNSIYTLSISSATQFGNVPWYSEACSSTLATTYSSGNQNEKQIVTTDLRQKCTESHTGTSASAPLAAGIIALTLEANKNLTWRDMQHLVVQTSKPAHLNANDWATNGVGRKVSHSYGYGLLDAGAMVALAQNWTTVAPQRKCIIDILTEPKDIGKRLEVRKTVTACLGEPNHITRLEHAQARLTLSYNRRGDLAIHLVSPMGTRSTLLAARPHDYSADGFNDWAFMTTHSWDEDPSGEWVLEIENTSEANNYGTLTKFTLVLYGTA
T2 sequence (P09958 108-794): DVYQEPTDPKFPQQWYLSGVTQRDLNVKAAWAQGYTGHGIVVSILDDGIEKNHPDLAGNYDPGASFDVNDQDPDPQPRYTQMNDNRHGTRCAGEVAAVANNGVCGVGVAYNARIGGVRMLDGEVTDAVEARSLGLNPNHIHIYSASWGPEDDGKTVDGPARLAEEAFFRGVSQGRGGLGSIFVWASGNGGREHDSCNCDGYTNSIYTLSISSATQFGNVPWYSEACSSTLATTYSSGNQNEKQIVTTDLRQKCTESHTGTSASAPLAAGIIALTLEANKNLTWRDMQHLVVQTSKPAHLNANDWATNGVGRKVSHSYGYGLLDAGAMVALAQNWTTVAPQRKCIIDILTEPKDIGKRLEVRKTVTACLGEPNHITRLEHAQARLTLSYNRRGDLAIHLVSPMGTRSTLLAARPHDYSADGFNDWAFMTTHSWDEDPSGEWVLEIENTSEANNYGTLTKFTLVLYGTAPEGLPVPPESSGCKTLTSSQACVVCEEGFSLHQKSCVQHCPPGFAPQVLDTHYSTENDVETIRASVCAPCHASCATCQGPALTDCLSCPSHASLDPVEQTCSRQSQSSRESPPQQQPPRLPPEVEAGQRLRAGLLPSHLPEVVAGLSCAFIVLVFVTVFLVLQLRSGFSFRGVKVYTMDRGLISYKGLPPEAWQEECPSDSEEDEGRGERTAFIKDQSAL

On to `CNC(=O)NCC1CCN(Cc2cc(Oc3cnc(N4CCN(CCCS(C)(=O)=O)CC4)nc3)nc(-c3cc(Cl)cc(Cl)c3)c2)CC1` [Example 257, 1-((1-((2-(3,5-dichlorophenyl)-6-((2-(4-(3-(methylsulfonyl)propyl)piper-1-yl)pyrimidin-5-yl)oxy)pyridin-4-yl)methyl)piperidin-4-yl)methyl)-3-methylurea], for which, in test [1], the “furin enzyme pIC50” value is 10.1. Further, in test [2], the EC50 is 5.01 nM.
The corresponding values for `CC(=O)NCC1CCN(Cc2cc(Oc3ccc(N4CCN(CCC(=O)O)CC4)nc3)cc(-c3cc(Cl)cc(Cl)c3)c2)CC1` [Example 258, 3-(4-(5-((5-((4-(acetamidomethyl)piperidin-1-yl)methyl)-3′,5′-dichloro-[1,1′-biphenyl]-3-yl)oxy)pyridin-2-yl)piperazin-1-yl)propanoic acid] are 9.6 and 31.6 nM.
Turning to `CC(=O)NCC1CCN(Cc2cc(Oc3cnc(N4CCN(CCCS(C)(=O)=O)CC4)nc3)nc(-c3cc(Cl)cc(Cl)c3)c2)CC1` [Example 259, N-((1-((2-(3,5-dichlorophenyl)-6-((2-(4-(3-(methylsulfonyl)propyl)piperazin-1-yl)pyrimidin-5-yl)oxy)pyridin-4-yl)methyl)piperidin-4-yl)methyl)acetamide], the “furin enzyme pIC50” value in test [1] worked out at 9.8. In test [2], the EC50 is 1.58 nM.
The matching figures for `CNC(=O)NCC1CCN(Cc2cc(Oc3cnc(N4CCN(CCC(N)=O)CC4)nc3)nc(-c3cc(Cl)cc(Cl)c3)c2)CC1` [Example 261, 3-(4-(5-((6-(3,5-dichlorophenyl)-4-((4-((3-methylureido)methyl)piperidin-1-yl)methyl)pyridin-2-yl)oxy)pyrimidin-2-yl)piperazin-1-yl)propanamide]: 9.2 and 10 nM.
Regarding `CNC(=O)NCC1CCN(Cc2cc(Oc3cnc(N4CCN(CCOC)CC4)nc3)nc(-c3cc(Cl)cc(Cl)c3)c2)CC1` [Example 262, 1-((1-((2-(3,5-dichlorophenyl)-6-((2-(4-(2-methoxyethyl)piperazin-1-yl)pyrimidin-5-yl)oxy)pyridin-4-yl)methyl)piperidin-4-yl)methyl)-3-methylurea], the “furin enzyme pIC50” value in test [1] was 9. Besides, the EC50 in test [2] is 0.316 nM.
The corresponding values for `CS(=O)(=O)CCCN1CCN(c2ccc(Oc3cc(CN4CCC(CC(N)=O)CC4)cc(-c4cc(Cl)cc(Cl)c4)n3)cn2)CC1` [Example 264, 2-(1-((2-(3,5-dichlorophenyl)-6-((6-(4-(3-(methylsulfonyl)propyl)piperazin-1-yl)pyridin-3-yl)oxy)pyridin-4-yl)methyl)piperidin-4-yl)acetamide] are 8.6 and 3.98 nM.
The corresponding values for `CNC(=O)NCC1(O)CCN(Cc2cc(Oc3cnc(N4CCN(CCC(N)=O)CC4)nc3)nc(-c3cc(Cl)cc(Cl)c3)c2)CC1` [Example 265, 3-(4-(5-((6-(3,5-dichlorophenyl)-4-((4-hydroxy-4-((3-methylureido)methyl)piperidin-1-yl)methyl)pyridin-2-yl)oxy)pyrimidin-2-yl)piperazin-1-yl)propanamide] are 9.4 and 7.94 nM.
The matching figures for `CC(=O)NCC1CCN(Cc2cc(Oc3cnc(N4CCN(CCC(=O)O)CC4)c(F)c3)nc(-c3cc(Cl)cc(Cl)c3)c2)CC1` [Example 266, 3-(4-(5-((4-((4-(acetamidomethyl)piperidin-1-yl)methyl)-6-(3,5-dichlorophenyl)pyridin-2-yl)oxy)-3-fluoropyridin-2-yl)piperazin-1-yl)propanoic acid]: 8.7 and 50.1 nM.
As for `CCOC(=O)NCC1CCN(Cc2cc(Oc3cnc(N4CCN(CCC(=O)O)CC4)nc3)nc(-c3cc(Cl)cc(Cl)c3)c2)CC1` [Example 267, 3-(4-(5-((6-(3,5-dichlorophenyl)-4-((4-(((ethoxycarbonyl)amino)methyl)piperidin-1-yl)methyl)pyridin-2-yl)oxy)pyrimidin-2-yl)piperazin-1-yl)propanoic acid], the “furin enzyme pIC50” value in test [1] stood at 9.9. Moreover, in test [2], the EC50 was 50.1 nM.
The matching figures for `CCNC(=O)CC1CCN(Cc2cc(Oc3cnc(N4CCN(CCC(=O)O)CC4)nc3)nc(-c3cc(Cl)cc(Cl)c3)c2)CC1` [Example 268, 3-(4-(5-((6-(3,5-dichlorophenyl)-4-((4-(2-(ethylamino)-2-oxoethyl)piperidin-1-yl)methyl)pyridin-2-yl)oxy)pyrimidin-2-yl)piperazin-1-yl)propanoic acid]: 9.1 and 63.1 nM.
Take `CC(CC1CCN(Cc2cc(Oc3cnc(N4CCNCC4)nc3)nc(-c3cc(Cl)cc(Cl)c3)c2)CC1)C(=O)O` (stereo not drawn) [Example 269, 3-(1-((2-(3,5-dichlorophenyl)-6-((2-(piperazin-1-yl)pyrimidin-5-yl)oxy)pyridin-4-yl)methyl)piperidin-4-yl)-2-methylpropanoic acid]: the “furin enzyme pIC50” value in test [1] is given as 8.5. The EC50 in test [2] was 25.1 nM.
The corresponding values for `CNC(=O)NCC1CCN(Cc2cc(Oc3cnc(N4CCN(CCC(=O)O)CC4)c(F)c3)nc(-c3cc(Cl)cc(Cl)c3)c2)CC1` [Example 270, 3-(4-(5-((6-(3,5-dichlorophenyl)-4-((4-((3-methylureido)methyl)piperidin-1-yl)methyl)pyridin-2-yl)oxy)-3-fluoropyridin-2-yl)piperazin-1-yl)propanoic acid] are 9.5 and 25.1 nM.
As for `CS(=O)(=O)CCCN1CCN(c2ccc(Oc3cc(CN4CCC(CCC(=O)O)CC4)cc(-c4cc(Cl)cc(Cl)c4)n3)cn2)CC1` [Example 271, 3-(1-((2-(3,5-dichlorophenyl)-6-((6-(4-(3-(methylsulfonyl)propyl)piperazin-1-yl)pyridin-3-yl)oxy)pyridin-4-yl)methyl)piperidin-4-yl)propanoic acid], in test [1], the “furin enzyme pIC50” value was determined as 8.9. For the same compound, the EC50 in test [2] is 25.1 nM.
The matching figures for `CS(=O)(=O)CCCN1CCN(c2ncc(Oc3cc(CN4CCC(CCC(=O)O)CC4)cc(-c4cc(Cl)cc(Cl)c4)n3)cn2)CC1` [Example 272, 3-(1-((2-(3,5-dichlorophenyl)-6-((2-(4-(3-(methylsulfonyl)propyl)piperazin-1-yl)pyrimidin-5-yl)oxy)pyridin-4-yl)methyl)piperidin-4-yl)propanoic acid]: 9.8 and 31.6 nM.
The matching figures for `CC(=O)NCC1CCN(Cc2cc(Oc3cnc(N4CCN(CCC(N)=O)CC4)nc3)nc(-c3cc(F)c(F)c(Cl)c3)c2)CC1` [Example 273, 3-(4-(5-((4-((4-(acetamidomethyl)piperidin-1-yl)methyl)-6-(3-chloro-4,5-difluorophenyl)pyridin-2-yl)oxy)pyrimidin-2-yl)piperazin-1-yl)propanamide]: 8.2 and 31.6 nM.
The corresponding values for `CNC(=O)NCC1CCN(Cc2cc(Oc3cnc(N4CCN(CCCS(C)(=O)=O)CC4)nc3)nc(-c3cc(F)cc(Cl)c3)c2)CC1` [Example 274, 1-((1-((2-(3-chloro-5-fluorophenyl)-6-((2-(4-(3-(methylsulfonyl)propyl)piperazin-1-yl)pyrimidin-5-yl)oxy)pyridin-4-yl)methyl)piperidin-4-yl)methyl)-3-methylurea] are 9 and 6.31 nM.
For the compound `COC(=O)NCC1CCN(Cc2cc(Oc3cnc(N4CCNCC4)nc3)nc(-c3cc(F)cc(Cl)c3)c2)CC1` [Example 275, methyl ((1-((2-(3-chloro-5-fluorophenyl)-6-((2-(piperazin-1-yl)pyrimidin-5-yl)oxy)pyridin-4-yl)methyl)piperidin-4-yl)methyl)carbamate], the “furin enzyme pIC50” value in test [1] is 8.3. In addition, the EC50 in test [2] was 100 nM.
The corresponding values for `CS(=O)(=O)CCC1CCN(Cc2cc(Oc3ccc(N4CCN(CCC(=O)O)CC4)nc3)nc(-c3cc(Cl)cc(Cl)c3)c2)CC1` [Example 276, 3-(4-(5-((6-(3,5-dichlorophenyl)-4-((4-(2-(methylsulfonyl)ethyl)piperidin-1-yl)methyl)pyridin-2-yl)oxy)pyridin-2-yl)piperazin-1-yl)propanoic acid] are 9 and 50.1 nM.
Regarding `NS(=O)(=O)CCC1CCN(Cc2cc(Oc3ccc(N4CCN(CCC(=O)O)CC4)nc3)nc(-c3cc(Cl)cc(Cl)c3)c2)CC1` [Example 277, 3-(4-(5-((6-(3,5-dichlorophenyl)-4-((4-(2-sulfamoylethyl)piperidin-1-yl)methyl)pyridin-2-yl)oxy)pyridin-2-yl)piperazin-1-yl)propanoic acid], the IC50 in test [1] (read-out: furin enzyme pIC50 (converted)) is 0.0316 nM. Besides, the EC50 in test [2] was 50.1 nM.
Take `O=C(O)CC1CCN(Cc2cc(Oc3cnc(N4CCN(CCC5(O)CC5)CC4)nc3)nc(-c3cc(Cl)cc(Cl)c3)c2)CC1` [Example 278, 2-(1-((2-(3,5-dichlorophenyl)-6-((2-(4-(2-(1-hydroxycyclopropyl)ethyl)piperazin-1-yl)pyrimidin-5-yl)oxy)pyridin-4-yl)methyl)piperidin-4-yl)acetic acid]: the “furin enzyme pIC50” value in test [1] was determined as 9.4. For the same compound, the EC50 in test [2] is 10 nM.
The corresponding values for `CC(C)(O)CCN1CCN(c2ncc(Oc3cc(CN4CCC(CC(=O)O)CC4)cc(-c4cc(Cl)cc(Cl)c4)n3)cn2)CC1` [Example 279, 2-(1-((2-(3,5-dichlorophenyl)-6-((2-(4-(3-hydroxy-3-methylbutyl)piperazin-1-yl)pyrimidin-5-yl)oxy)pyridin-4-yl)methyl)piperidin-4-yl)acetic acid] are 8.6 and 20 nM.

Values taken from US11773078B2, “Furin inhibitors” (Glaxosmithkline Intellectual Property Development Limited, priority 2018, dated 2023).
